These results are taken from ChEMBL document CHEMBL1134176, “Structure-activity relationships of novel anti-malarial agents. Part 2: cinnamic acid derivatives” (Bioorg Med Chem Lett, 2001).

This experiment relates to Plasmodium falciparum. As to the kind of experiment: Inhibitory activity against Plasmodium falciparum Dd2 in erythrocytes. The experiment is classed as functional, organism-based.

`Cc1ccc(CC(=O)Nc2ccc(NC(=O)/C=C/c3ccc(C(C)C)cc3)cc2C(=O)c2ccccc2)cc1` returned an IC50 of 1200 nM.

Take `Cc1ccc(CC(=O)Nc2ccc(NC(=O)/C=C/c3ccc(C=O)cc3)cc2C(=O)c2ccccc2)cc1`: the IC50 was found to be 40000 nM.

`Cc1ccc(CC(=O)Nc2ccc(NC(=O)/C=C/c3ccc(C(F)(F)F)cc3)cc2C(=O)c2ccccc2)cc1` returned an IC50 of 5700 nM. Under `CCc1ccc(/C=C/C(=O)Nc2ccc(NC(=O)Cc3ccc(C)cc3)c(C(=O)c3ccccc3)c2)cc1` stands 1200 nM; under `Cc1ccc(CC(=O)Nc2ccc(NC(=O)/C=C/c3ccc(C(C)(C)C)cc3)cc2C(=O)c2ccccc2)cc1`, 3000 nM; under `Cc1ccc(CC(=O)Nc2ccc(NC(=O)/C=C/c3ccc(C#N)cc3)cc2C(=O)c2ccccc2)cc1`, above 100000 nM. In turn, `Cc1ccc(CC(=O)Nc2ccc(NC(=O)/C=C/c3ccc(C=C(C#N)C#N)cc3)cc2C(=O)c2ccccc2)cc1` had an IC50 of 43000 nM.

On to `Cc1ccc(CC(=O)Nc2ccc(NC(=O)/C=C/c3ccc([N+](=O)[O-])cc3)cc2C(=O)c2ccccc2)cc1`, for which the IC50 is 6500 nM. Regarding `Cc1ccc(CC(=O)Nc2ccc(NC(=O)/C=C/c3ccc(N)cc3)cc2C(=O)c2ccccc2)cc1`, it took 5500 nM to reach half-maximal inhibition (IC50). The same measure for `Cc1ccc(/C=C/C(=O)Nc2ccc(NC(=O)Cc3ccc(C)cc3)c(C(=O)c3ccccc3)c2)cc1`: 1400 nM; for `Cc1ccc(CC(=O)Nc2ccc(NC(=O)/C=C/c3ccc(Cl)cc3)cc2C(=O)c2ccccc2)cc1`: 5500 nM.

For `COc1ccc(/C=C/C(=O)Nc2ccc(NC(=O)Cc3ccc(C)cc3)c(C(=O)c3ccccc3)c2)cc1`, it took 1300 nM to reach half-maximal inhibition (IC50). Regarding `COC(=O)c1ccc(/C=C/C(=O)Nc2ccc(NC(=O)Cc3ccc(C)cc3)c(C(=O)c3ccccc3)c2)cc1`, half-maximal inhibition (IC50) required 1000 nM. In turn, `Cc1ccc(CC(=O)Nc2ccc(NC(=O)/C=C/c3ccc(Br)cc3)cc2C(=O)c2ccccc2)cc1` yielded an IC50 of 3200 nM. Under `CCCCOc1ccc(/C=C/C(=O)Nc2ccc(NC(=O)Cc3ccc(C)cc3)c(C(=O)c3ccccc3)c2)cc1` stands 1100 nM. On to `CCOc1ccc(/C=C/C(=O)Nc2ccc(NC(=O)Cc3ccc(C)cc3)c(C(=O)c3ccccc3)c2)cc1`, for which inhibition was half-maximal at 850 nM (IC50).

Compound `Cc1ccc(CC(=O)Nc2ccc(NC(=O)/C=C/c3ccccc3)cc2C(=O)c2ccccc2)cc1` registered an IC50 of 5800 nM. As to `CCCOc1ccc(/C=C/C(=O)Nc2ccc(NC(=O)Cc3ccc(C)cc3)c(C(=O)c3ccccc3)c2)cc1`, the IC50 stood at 200 nM.

`Cc1ccc(CC(=O)Nc2ccc(NC(=O)CCc3ccccc3)cc2C(=O)c2ccccc2)cc1` yielded an IC50 of 2700 nM. The compound `C[C@@H]1CC[C@H]2[C@@H](C)C(=O)O[C@@H]3O[C@@]4(C)CC[C@@H]1[C@]32OO4` [ARTEMISININ] displayed an IC50 of 18 nM. As to `O=C1C(O)=C([C@H]2CC[C@H](c3ccc(Cl)cc3)CC2)C(=O)c2ccccc21` [ATOVAQUONE], the IC50 was determined as 1 nM. As for `CC1(C)N=C(N)N=C(N)N1c1ccc(Cl)cc1` [CYCLOGUANIL], the midpoint of inhibition, the IC50, lay at 2200 nM. For `CCCCN(CCCC)CCC(O)c1cc2c(Cl)cc(Cl)cc2c2cc(C(F)(F)F)ccc12` (stereo unspecified) [HALOFANTRINE], the IC50 came out at 9.3 nM. The compound `OC(c1cc(C(F)(F)F)nc2c(C(F)(F)F)cccc12)C1CCCCN1` (stereo unspecified) [MEFLOQUINE] displayed an IC50 of 57 nM. Compound `CCc1nc(N)nc(N)c1-c1ccc(Cl)cc1` [PYRIMETHAMINE] returned an IC50 of 2500 nM. `C=C[C@H]1CN2CC[C@H]1C[C@H]2[C@H](O)c1ccnc2ccc(OC)cc12` [QUININE] registered an IC50 of 380 nM.
